In patent US5164370A, “Peptide analogues of insulin-like growth factor 1 (IGF-1) or factor 2 (IGF-2)” (Gropep Pty. Ltd., priority 1987, dated 1992):
Where no end group is shown, it is not given here.

Legend:
[1] = tested on: L6 myoblasts; test: incorporation of 3H-labelled leucine into total cell protein of L6 myoblasts (protein synthesis bioassay); type: cell-based; conditions: for Concentration (percent of that required to give a half-response with hIGF-1): hIGF-1 half-response 12 ng/ml = 100, lower = more potent
Description: Bioassays of purified synthetic peptides have been compared with pure human/bovine/porcine IGF-1. The assays involve the incorporation of 3H-labelled leucine into the total cell protein of L6 myoblasts as described by Francis et al. (Biochem. J. 233:207-213, 1986).

[2] = tested on: purified binding protein; test: competition for binding of labelled human/bovine/porcine IGF-1 to purified binding protein; conditions: competition with labelled human/bovine/porcine IGF-1
Description: This apparent discrepancy is caused by the myoblasts producing a binding protein in addition to the receptor. This binding protein selectively binds those IGF-1 peptides that have a glutamic acid residue at position 3 from the N-terminal, thus preventing the peptide binding to the cell receptor. This interpretation is established by the following results [determined by the method of Martin and Baxter, J. Biol, Chem. 261: 8754-8760, (1986)] with purified binding proteins (see Table 2).

| Potency for binding to the protein where hIGF-1 = 100% [2] | Substance | Concentration (percent of that required to give a half-response with hIGF-1) [1] | concentration required to give a half-response ([1]; 3H-leucine incorporation) |
| --- | --- | --- | --- |
| < 0.1% | Gly--Pro--Arg--Thr--Leu--Cys--: IGF-1 analogue: glutamic acid at position 3 substituted with arginine (GPRTLC; not fully specified (C-terminus); printed as Gly—Pro—Arg—Thr—Leu—Cys—; ends and bridges not checked; also: N-terminal part of IGF-1 analogue, rest of chain not shown) | 5% |  |
| 1.0% | Gly--Pro--Gln--Thr--Leu--Cys--: IGF-1 analogue: glutamic acid at position 3 substituted with glutamine (GPQTLC; not fully specified (C-terminus); printed as Gly—Pro—Gln—Thr—Leu—Cys—; ends and bridges not checked; also: N-terminal part of IGF-1 analogue, rest of chain not shown) | 18% |  |
| 100% | Gly--Pro--Glu--Thr--Leu--Cys--: pure human/bovine/porcine insulin-like growth factor-1, full 70-residue sequence (b3) (GPETLC; not fully specified (C-terminus); ends and bridges not checked; also: N-terminal part of IGF-1, rest of chain not shown) [reference compound] | 100% | 12 ng/mL |
| < 0.1% | Gly--Pro--Gly--Arg--Leu--Cys--: IGF-1 analogue: glutamic acid 3 substituted with glycine and threonine 4 with arginine (GPGRLC; not fully specified (C-terminus); printed as Gly—Pro—Gly—Arg—Leu—Cys—; ends and bridges not checked; also: N-terminal part of IGF-1 analogue, rest of chain not shown) | 4% |  |
| 0.1% | Gly--Pro--Gly--Gly--Leu--Cys--: IGF-1 analogue: glutamic acid 3 substituted with glycine and threonine 4 with glycine (GPGGLC; not fully specified (C-terminus); printed as Gly—Pro—Gly—Gly—Leu—Cys—; ends and bridges not checked; also: N-terminal part of IGF-1 analogue, rest of chain not shown) | 14% |  |
| 0.5% | Gly--Pro--Gly--Thr--Leu--Cys--: IGF-1 analogue: glutamic acid at position 3 substituted with glycine (GPGTLC; not fully specified (C-terminus); printed as Gly—Pro—Gly—Thr—Leu—Cys—; ends and bridges not checked; also: N-terminal part of IGF-1 analogue, rest of chain not shown) | 12% |  |
| 0.5% | Gly--Pro--Leu--Thr--Leu--Cys--: IGF-1 analogue: glutamic acid at position 3 substituted with leucine (GPLTLC; not fully specified (C-terminus); printed as Gly—Pro—Leu—Thr—Leu—Cys—; ends and bridges not checked; also: N-terminal part of IGF-1 analogue, rest of chain not shown) | 18% |  |
| 0.1% | Gly--Pro--Lys--Thr--Leu--Cys--: IGF-1 analogue: glutamic acid at position 3 substituted with lysine (GPKTLC; not fully specified (C-terminus); printed as Gly—Pro—Lys—Thr—Leu—Cys—; ends and bridges not checked; also: N-terminal part of IGF-1 analogue, rest of chain not shown) | 11% |  |
| 1.0% | Gly--Thr--Leu--Cys--: IGF-1 analogue: Gly, Pro removed and glutamic acid substituted with glycine (GTLC; not fully specified (C-terminus); printed as Gly—Thr—Leu—Cys—; ends and bridges not checked; also: N-terminal part of IGF-1 analogue, rest of chain not shown) | 16% |  |
